One experiment deals with SREBP-2 (Homo sapiens (Human), UniProt Q12772). Kind of experiment: In vitro assay SREBP-2: PathHunter U2OS SREBP-2 Nuclear Translocation Cell Line, U18666A-stimulated. The format is cell-based.
For the next experiment, the target named is LXRβ (Homo sapiens (Human), UniProt P55055). Kind of experiment: In vitro assay LXRβ: PathHunter NHR CHO cells, LXRβ / Steroid Receptor Co-activator Peptide enzyme fragment complementation. The format is cell-based. Particulars: PathHunter NHR CHO cells, full-length human LXRβ and SRCP, chemiluminescent signal; read-out: LXRβ PPI. The procedure, abridged:
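Co-activator recruitment measured by chemiluminescence after signal generation. The CHO line carries full-length human LXRβ tagged with ProLink and an SRCP–enzyme acceptor fusion in the nucleus; cells sat overnight at 37° C before testing, in charcoal-dextran filtered serum medium with 1% final vehicle.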

The mark [1] stands for this setting: PathHunter U2OS SREBP-2 nuclear translocation cells, U18666A 10 μM, overnight (16 hours).

Where two headings read alike, the source gives them in different places.

These results are taken from patent US20230340011A1 (Asteroid Therapeutics, priority 2022, published 2023).

Sequence of LXRβ (P55055 whole entry, the tested form may be a part): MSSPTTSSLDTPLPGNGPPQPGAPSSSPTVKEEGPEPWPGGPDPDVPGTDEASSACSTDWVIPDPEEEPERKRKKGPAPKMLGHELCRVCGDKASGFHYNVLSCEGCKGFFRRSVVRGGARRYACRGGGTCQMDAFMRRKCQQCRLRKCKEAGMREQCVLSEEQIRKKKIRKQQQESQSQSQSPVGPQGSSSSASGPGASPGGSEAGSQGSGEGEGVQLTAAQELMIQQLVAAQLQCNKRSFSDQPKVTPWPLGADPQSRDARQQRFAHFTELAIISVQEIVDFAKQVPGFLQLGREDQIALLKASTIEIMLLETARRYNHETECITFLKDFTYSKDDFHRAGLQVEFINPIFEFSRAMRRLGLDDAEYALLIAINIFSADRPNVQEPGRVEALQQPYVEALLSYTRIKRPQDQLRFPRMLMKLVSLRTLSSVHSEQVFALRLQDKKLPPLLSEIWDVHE

One may read the IC50 as the concentration needed to halve the response being measured. Lower therefore signals higher potency. `C[C@H](CCc1cnccn1)[C@H]1CC[C@H]2[C@@H]3CC=C4C[C@@H](O)CC[C@]4(C)[C@H]3CC[C@]12C` [Example 136, (3S,8S,9S,10R,13R,14S,17R)-10,13-dimethyl-17-((R)-4-(pyrazin-2-yl)butan-2-yl)-2,3,4,7,8,9,10,11,12,13,14,15,16,17-tetradecahydro-1H-cyclopenta[a]phenanthren-3-ol] gave an IC50 against SREBP-2 (setting [1]) of less than 0.25 µM. Besides, the EC50 at LXRβ was 0.25 to 1 µM.
The matching figures for `C[C@H](CCc1ncco1)[C@H]1CC[C@H]2[C@@H]3CC=C4C[C@@H](O)CC[C@]4(C)[C@H]3CC[C@]12C` [Example 137, (3S,8S,9S,10R,13R,14S,17R)-10,13-dimethyl-17-((R)-4-(oxazol-2-yl)butan-2-yl)-2,3,4,7,8,9,10,11,12,13,14,15,16,17-tetradecahydro-1H-cyclopenta[a]phenanthren-3-ol]: 0.25 to 1 µM and 1 to 10 µM.
For the compound `C=CCN1C[C@@H]2CCN(C(=O)CC[C@@H](C)[C@H]3CC[C@H]4[C@@H]5CC=C6C[C@@H](O)CC[C@]6(C)[C@H]5CC[C@]34C)[C@@H]2C1` [Example 139, (R)-1-((3aS,6aS)-5-allylhexahydropyrrolo[3,4-b]pyrrol-1(2H)-yl)-4-((3S,8S,9S,10R,13R,14S,17R)-3-hydroxy-10,13-dimethyl-2,3,4,7,8,9,10,11,12,13,14,15,16,17-tetradecahydro-1H-cyclopenta[a]phenanthren-17-yl)pentan-1-one], the IC50 on SREBP-2 (setting [1]) lay in the range of 0.25 to 1 µM. Besides, the EC50 at LXRβ was greater than 10 µM.
In turn, `C=CCN1C[C@H]2CCN(C(=O)CC[C@@H](C)[C@H]3CC[C@H]4[C@@H]5CC=C6C[C@@H](O)CC[C@]6(C)[C@H]5CC[C@]34C)[C@H]2C1` [Example 140, (R)-1-((3aR,6aR)-5-allylhexahydropyrrolo[3,4-b]pyrrol-1(2H)-yl)-4-((3S,8S,9S,10R,13R,14S,17R)-3-hydroxy-10,13-dimethyl-2,3,4,7,8,9,10,11,12,13,14,15,16,17-tetradecahydro-1H-cyclopenta[a]phenanthren-17-yl)pentan-1-one] had an IC50 at SREBP-2 (setting [1]) of 0.25 to 1 µM. The EC50 at LXRβ was greater than 10 µM.
Compound `CON(C)C(=O)C(C)C[C@@H](C)[C@H]1CC[C@H]2[C@@H]3CC=C4C[C@@H](O)CC[C@]4(C)[C@H]3CC[C@]12C` (stereo partly drawn) [Example 142, (4R)-4-((3S,8S,9S,10R,13R,14S,17R)-3-hydroxy-10,13-dimethyl-2,3,4,7,8,9,10,11,12,13,14,15,16,17-tetradecahydro-1H-cyclopenta[a]phenanthren-17-yl) -N-methoxy-N,2-dimethylpentanamide] had an IC50 against SREBP-2 of 1 to 10 µM. Also, the EC50 on LXRβ was in the range of 1 to 10 µM.
For the compound `C[C@H](CCC(=O)N1CCC(O)(CC(F)F)CC1)[C@H]1CC[C@H]2[C@@H]3CC=C4C[C@@H](O)CC[C@]4(C)[C@H]3CC[C@]12C` [Example 151, (4R)-4-[(1R,3aS,3bS,7S,9aR,9bS,11aR)-7-hydroxy-9a,11a-dimethyl-1H,2H,3H,3aH,3bH,4H,6H,7H,8H,9H,9aH,9bH,10H,11H,11aH-cyclopenta[a]phenanthren-1-yl]-1-[4-(2,2-difluoroethyl)-4-hydroxypiperidin-1-yl]pentan-1-one], the IC50 at SREBP-2 (setting [1]) is less than 0.25 µM. Further, the EC50 at LXRβ is less than 0.25 µM.
`C[C@H](OC(=O)C(=O)N1CCC1)[C@H]1CC[C@H]2[C@@H]3CC=C4C[C@@H](O)CC[C@]4(C)[C@H]3CC[C@]12C` [Example 155, (1S)-1-[(1S,3aS,3bS,7S,9aR,9bS,11aS)-7-hydroxy-9a,11a-dimethyl-1H,2H,3H,3aH,3bH,4H,6H,7H,8H,9H,9aH,9bH,10H,11H,11aH-cyclopenta[a]phenanthren-1-yl]ethyl 2-(azetidin-1-yl)-2-oxoacetate] came in with an IC50 against SREBP-2 (setting [1]) of 1 to 10 µM. Further, on LXRβ, the EC50 was greater than 10 µM.
The matching figures for `CCC1(O)CCN(C(=O)CC[C@@H](C)[C@H]2CC[C@H]3[C@@H]4CC=C5C[C@@H](O)C[C@H](O)[C@]5(C)[C@H]4CC[C@]23C)CC1` [Example 156, (R)-4-((1S,3R,8S,9S,10R,13R,14S,17R)-1,3-dihydroxy-10,13-dimethyl-2,3,4,7,8,9,10,11,12,13,14,15,16,17-tetradecahydro-1H-cyclopenta[a]phenanthren-17-yl)-1-(4-ethyl-4-hydroxypiperidin-1-yl)pentan-1-one]: greater than 10 µM and less than 0.25 µM.
As for `C[C@H](CCC(=O)N(C)C)[C@H]1CC[C@H]2[C@@H]3CC=C4C[C@@H](O)CC[C@]4(C)[C@H]3[C@@H](O)C[C@]12C` [Example 157, (R)-4-((3S,8S,9S,10R,11S,13R,14S,17R)-3,11-dihydroxy-10,13-dimethyl-2,3,4,7,8,9,10,11,12,13,14,15,16,17-tetradecahydro-1H-cyclopenta[a]phenanthren-17-yl)-N, N-dimethylpentanamide], the IC50 against SREBP-2 (setting [1]) was in the range of 0.25 to 1 µM. For the same compound, the EC50 on LXRβ was in the range of 0.25 to 1 µM.
`CCC1(O)CCN(C(=O)CC[C@@H](C)[C@H]2CC[C@H]3[C@@H]4CC=C5C[C@@H](O)CC[C@]5(C)[C@H]4[C@@H](O)C[C@]23C)CC1` [Example 158, (R)-4-((3S,8S,9S,10R,11S,13R,14S,17R)-3,11-dihydroxy-10,13-dimethyl-2,3,4,7,8,9,10,11,12,13,14,15,16,17-tetradecahydro-1H-cyclopenta[a]phenanthren-17-yl)-1-(4-ethyl-4-hydroxypiperidin-1-yl)pentan-1-one] returned an IC50 against SREBP-2 (setting [1]) of 0.25 to 1 µM. Also, at LXRβ, the EC50 was less than 0.25 µM.
Turning to `C[C@H](CCc1cccnc1)[C@H]1CC[C@H]2[C@@H]3CC=C4C[C@@H](O)CC[C@]4(C)[C@H]3CC[C@]12C` [Example 159, (3S,8S,9S,10R,13R,14S,17R)-10,13-dimethyl-17-((R)-4-(pyridin-3-yl)butan-2-yl)-2,3,4,7,8,9,10,11,12,13,14,15,16,17-tetradecahydro-1H-cyclopenta[a]phenanthren-3-ol], the IC50 against SREBP-2 (setting [1]) was less than 0.25 µM. The EC50 on LXRβ was greater than 10 µM.
On SREBP-2 (setting [1]), `C[C@H](CCc1ccncc1)[C@H]1CC[C@H]2[C@@H]3CC=C4C[C@@H](O)CC[C@]4(C)[C@H]3CC[C@]12C` [Example 160, (3S,8S,9S,10R,13R,14S,17R)-10,13-dimethyl-17-((R)-4-(pyridin-4-yl)butan-2-yl)-2,3,4,7,8,9,10,11,12,13,14,15,16,17-tetradecahydro-1H-cyclopenta[a]phenanthren-3-ol] came in with an IC50 of 0.25 to 1 µM. Moreover, on LXRβ, the EC50 is greater than 10 µM.
The matching figures for `C[C@H](CCc1cccc(F)n1)[C@H]1CC[C@H]2[C@@H]3CC=C4C[C@@H](O)CC[C@]4(C)[C@H]3CC[C@]12C` [Example 161, (3S,8S,9S,10R,13R,14S,17R)-17-((R)-4-(6-fluoropyridin-2-yl)butan-2-yl)-10,13-dimethyl-2,3,4,7,8,9,10,11,12,13,14,15,16,17-tetradecahydro-1H-cyclopenta[a]phenanthren-3-ol]: less than 0.25 µM and 1 to 10 µM.
The matching figures for `C[C@H](CCc1ccc(F)cn1)[C@H]1CC[C@H]2[C@@H]3CC=C4C[C@@H](O)CC[C@]4(C)[C@H]3CC[C@]12C` [Example 162, (1R,3aS,3bS,7S,9aR,9bS,11aR)-1-[(2R)-4-(5-fluoropyridin-2-yl)butan-2-yl]-9a,11a-dimethyl-1H,2H,3H,3aH,3bH,4H,6H,7H,8H,9H,9aH,9bH,10H,11H,11aH-cyclopenta[a]phenanthren-7-ol]: less than 0.25 µM and 1 to 10 µM.
The matching figures for `C[C@H](CCc1cc(F)ccn1)[C@H]1CC[C@H]2[C@@H]3CC=C4C[C@@H](O)CC[C@]4(C)[C@H]3CC[C@]12C` [Example 163, (3S,8S,9S,10R,13R,14S,17R)-17-((R)-4-(4-fluoropyridin-2-yl)butan-2-yl)-10,13-dimethyl-2,3,4,7,8,9,10,11,12,13,14,15,16,17-tetradecahydro-1H-cyclopenta[a]phenanthren-3-ol]: less than 0.25 µM and 1 to 10 µM.
As for `C[C@H](CCc1ncccc1F)[C@H]1CC[C@H]2[C@@H]3CC=C4C[C@@H](O)CC[C@]4(C)[C@H]3CC[C@]12C` [Example 164, (3S,8S,9S,10R,13R,14S,17R)-17-((R)-4-(3-fluoropyridin-2-yl)butan-2-yl)-10,13-dimethyl-2,3,4,7,8,9,10,11,12,13,14,15,16,17-tetradecahydro-1H-cyclopenta[a]phenanthren-3-ol], the IC50 at SREBP-2 (setting [1]) is 0.25 to 1 µM. In addition, on LXRβ, the EC50 was 0.25 to 1 µM.
At SREBP-2 (setting [1]), `C[C@H](CCc1cccc(Cl)n1)[C@H]1CC[C@H]2[C@@H]3CC=C4C[C@@H](O)CC[C@]4(C)[C@H]3CC[C@]12C` [Example 165, (3S,8S,9S,10R,13R,14S,17R)-17-((R)-4-(6-chloropyridin-2-yl)butan-2-yl)-10,13-dimethyl-2,3,4,7,8,9,10,11,12,13,14,15,16,17-tetradecahydro-1H-cyclopenta[a]phenanthren-3-ol] returned an IC50 of 0.25 to 1 µM. In addition, on LXRβ, the EC50 is greater than 10 µM.
Turning to `C[C@H](CCc1cccc(C(F)(F)F)n1)[C@H]1CC[C@H]2[C@@H]3CC=C4C[C@@H](O)CC[C@]4(C)[C@H]3CC[C@]12C` [Example 166, (3S,8S,9S,10R,13R,14S,17R)-10,13-dimethyl-17-((R)-4-(6-(trifluoromethyl)pyridin-2-yl)butan-2-yl)-2,3,4,7,8,9,10,11,12,13,14,15,16,17-tetradecahydro-1H-cyclopenta[a]phenanthren-3-ol], the IC50 on SREBP-2 (setting [1]) was 0.25 to 1 µM. For the same compound, the EC50 on LXRβ is greater than 10 µM.
Take `CCc1cccc(CC[C@@H](C)[C@H]2CC[C@H]3[C@@H]4CC=C5C[C@@H](O)CC[C@]5(C)[C@H]4CC[C@]23C)n1` [Example 167, (3S,8S,9S,10R,13R,14S,17R)-17-((R)-4-(6-ethylpyridin-2-yl)butan-2-yl)-10,13-dimethyl-2,3,4,7,8,9,10,11,12,13,14,15,16,17-tetradecahydro-1H-cyclopenta[a]phenanthren-3-ol]: at SREBP-2 (setting [1]), the IC50 is 0.25 to 1 µM. The EC50 on LXRβ was greater than 10 µM.
